Assay [1] can be described thus: Displacement of [3H]PDBu from Protein kinase C in vitro. Set-up: species or system Mus musculus. (In a radioligand displacement assay an active substance lowers the binding of a labelled ligand.)
Assay [2] has as its target Epidermal growth factor receptor (Mus musculus) (UniProt Q01279). In words: Inhibition of epidermal growth factor binding in C3H10T1/2 cells. Format: functional, cell-based. The settings on record: C3H 10T1/2.
The next assay deals with C3H 10T1/2. Briefly: Inhibition of arachidonic acid metabolite release in C3H10T1/2 cells. Format: functional, Mus musculus.

Broadly, the Ki is a measure of affinity in units of concentration, obtained from inhibition or displacement. High values mean lower affinity, low ones higher affinity.

Molecules are shown by their SMILES.

Sequence of Epidermal growth factor receptor (Mus musculus) (Q01279 whole entry): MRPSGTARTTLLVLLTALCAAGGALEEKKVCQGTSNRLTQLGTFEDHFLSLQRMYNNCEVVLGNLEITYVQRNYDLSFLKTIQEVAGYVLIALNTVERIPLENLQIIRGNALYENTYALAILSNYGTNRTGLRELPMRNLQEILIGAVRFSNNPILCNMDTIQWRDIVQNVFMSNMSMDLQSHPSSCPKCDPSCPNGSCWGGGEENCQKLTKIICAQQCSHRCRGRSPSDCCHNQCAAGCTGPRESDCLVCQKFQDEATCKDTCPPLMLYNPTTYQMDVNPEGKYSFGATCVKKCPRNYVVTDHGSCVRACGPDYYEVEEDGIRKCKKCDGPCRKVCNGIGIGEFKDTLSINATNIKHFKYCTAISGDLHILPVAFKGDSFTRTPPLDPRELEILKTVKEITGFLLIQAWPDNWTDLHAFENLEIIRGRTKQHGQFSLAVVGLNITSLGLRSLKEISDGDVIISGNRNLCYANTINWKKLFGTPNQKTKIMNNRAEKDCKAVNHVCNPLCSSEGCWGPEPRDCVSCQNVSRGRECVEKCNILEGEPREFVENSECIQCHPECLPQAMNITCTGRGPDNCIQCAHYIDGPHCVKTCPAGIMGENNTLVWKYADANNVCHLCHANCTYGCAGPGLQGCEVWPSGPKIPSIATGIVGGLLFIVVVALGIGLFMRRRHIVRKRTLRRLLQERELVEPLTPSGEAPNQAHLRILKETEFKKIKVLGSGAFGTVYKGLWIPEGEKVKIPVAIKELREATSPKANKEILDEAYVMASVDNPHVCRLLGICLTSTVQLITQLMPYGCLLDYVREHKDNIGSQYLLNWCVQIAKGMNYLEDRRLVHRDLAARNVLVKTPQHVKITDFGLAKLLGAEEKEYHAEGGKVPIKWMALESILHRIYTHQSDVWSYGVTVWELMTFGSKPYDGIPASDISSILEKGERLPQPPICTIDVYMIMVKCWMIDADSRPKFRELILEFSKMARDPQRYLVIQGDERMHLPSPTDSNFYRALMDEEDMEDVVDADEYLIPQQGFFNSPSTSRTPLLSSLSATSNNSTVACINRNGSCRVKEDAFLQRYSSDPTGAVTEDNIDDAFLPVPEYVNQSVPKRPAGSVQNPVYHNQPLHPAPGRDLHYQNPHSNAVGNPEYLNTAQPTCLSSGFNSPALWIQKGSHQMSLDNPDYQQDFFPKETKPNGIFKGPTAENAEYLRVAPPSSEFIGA

In assay [1], `CC(=O)O[C@@]12C[C@@H](C)[C@@]3(O)[C@@H](C=C(CO)C[C@]4(O)C(=O)C(C)=C[C@@H]34)[C@@H]1C2(C)C` [PROSTRATIN] registered a Ki of 12.5 nM. The Effective concentration was found to be 220 nM in assay [2] and 1100 nM in the assay with C3H 10T1/2.

Source of the values: ChEMBL document CHEMBL1126055, “A nonpromoting phorbol from the samoan medicinal plant Homalanthus nutans inhibits cell killing by HIV-1” (J Med Chem, 1992).
